In this experiment the target is T1, Glucocorticoid Receptor (GR) (Homo sapiens, UniProt P04150).
T1 construct: purchased Invitrogen P2816
T1 sequence (P04150 1-777): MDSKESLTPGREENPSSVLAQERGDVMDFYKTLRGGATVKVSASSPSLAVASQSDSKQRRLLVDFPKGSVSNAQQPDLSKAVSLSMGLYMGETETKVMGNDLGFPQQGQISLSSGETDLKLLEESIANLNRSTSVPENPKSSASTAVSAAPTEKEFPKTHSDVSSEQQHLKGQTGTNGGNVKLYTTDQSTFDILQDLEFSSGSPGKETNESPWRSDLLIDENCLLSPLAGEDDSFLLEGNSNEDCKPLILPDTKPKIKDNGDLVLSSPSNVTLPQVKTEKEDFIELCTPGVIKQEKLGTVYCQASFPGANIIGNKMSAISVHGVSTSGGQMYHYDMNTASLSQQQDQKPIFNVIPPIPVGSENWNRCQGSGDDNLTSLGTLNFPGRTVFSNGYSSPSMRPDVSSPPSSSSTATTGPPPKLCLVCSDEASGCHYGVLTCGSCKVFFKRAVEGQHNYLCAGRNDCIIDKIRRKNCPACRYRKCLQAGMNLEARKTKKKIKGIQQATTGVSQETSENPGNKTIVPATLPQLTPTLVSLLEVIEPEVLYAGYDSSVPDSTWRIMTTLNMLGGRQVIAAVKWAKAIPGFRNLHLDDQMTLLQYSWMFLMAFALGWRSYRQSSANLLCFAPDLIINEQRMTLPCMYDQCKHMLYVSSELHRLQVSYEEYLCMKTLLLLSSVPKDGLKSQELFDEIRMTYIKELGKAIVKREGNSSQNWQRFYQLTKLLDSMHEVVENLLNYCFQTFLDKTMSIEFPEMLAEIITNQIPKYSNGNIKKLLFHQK
Briefly: GR receptor competitor assay by fluorescence polarization (Invitrogen GR competitor assay kit, cat No. P2816). As to conditions: 20 μM test compound solution, 10 μL per well plus 5 μL 4×GS1 and 5 μL 4×GR solution; recombinant human GR; 2 to 4 hours at room temperature; a ratio of 100% or more is indicated by 100%; read-out: GR Binding ratio (%). The method, then:
A detailed explanation of this matter will be described in the section of “Pharmacological Test” in Examples described below. In order to find the usefulness of the present compound as a pharmaceutical, a glucocorticoid receptor competitor assay was carried out by a fluorescence polarization method by using a glucocorticoid receptor competitor assay kit (manufactured by Invitrogen, cat No P2816) to study the glucocorticoid receptor binding activity of the present compound.
1. Evaluation Test for Binding Activity to Glucocorticoid Receptor (Hereinafter Referred to as “GR”)
In order to evaluate a binding activity to GR, a receptor competitor assay was carried out by a fluorescence polarization method. In the assay, a GR competitor assay kit (manufactured by Invitrogen, cat No. P2816) was used, and a procedure was carried out according to the protocol attached to the kit. Hereinafter, the specific method will be described.
(Preparation of Reagents)
GR screening buffer: A buffer containing 10 mM potassium phosphate (pH 7.4), 20 mM sodium molybdate (Na2MoO4), 0.1 mM ethylene diamine tetraacetic acid (EDTA), 5 mM dithiothreitol (DTT), 0.1 mM stabilizing peptide and 2% dimethylsulfoxide was prepared.
4×GS1 solution: Fluormone™ GS1, which is a fluorescent glucocorticoid ligand, was diluted with GR screening buffer, whereby a 4 nM solution was prepared.
4×GR solution: Recombinant human GR was diluted with GR screening buffer, whereby a 16 nM solution was prepared.
(Preparation of Test Compound Solution)
After a test compound was dissolved in dimethylsulfoxide, the resulting solution was diluted with GR screening buffer, whereby a 20 μM test compound solution was prepared.
(Test Method and Measurement Method)
1) The test compound solution was added in an amount of 10 μL into each well of a 384-well plate, and then, 4×GS1 solution and 4×GR solution were added in an amount of 5 μL into each well, respectively.
2) The plate was incubated in a dark place at room temperature for 2 to 4 hours.
3) By using a multimode plate reader, Analyst™ HT (manufactured by LJL Biosystems), fluorescence polarization of each well was measured. As the blank, a well containing GR screening buffer in place of the test compound and 4×GS1 solution was used.
4) The same procedure as that in the above 1) to 3) was carried out except that GR screening buffer was used in place of the test compound solution, and the obtained result was taken as the negative control.
5) The same procedure as that in the above 1) to 3) was carried out except that 2 mM dexamethasone was used in place of the test compound solution, and the obtained result was taken as the positive control.
(Calculation Equation of GR Binding Ratio)
A GR binding ratio (%) was calculated from the following equation. GR binding ratio (%)=100×[1−(fluorescence polarization of test compound solution−fluorescence polarization of positive control solution)/(fluorescence polarization of negative control solution−fluorescence polarization of positive control solution)] (Test Results and Discussion)

Turning to `COc1cc(OC(=O)Nc2ccccc2Cl)ccc1-c1ccc2c(c1COc1cc(F)ccc1C)C(C)=CC(C)(C)N2` [Compound 6-3, 6-[4-(2-Chlorophenylaminocarbonyloxy)-2-methoxyphenyl]-5-(5-fluoro-2-methylphenoxymethyl)-2,2,4-trimethyl-1,2-dihydroquinoline], the inhibition at 10 µM was determined as 98%.

`C=CC(=O)Oc1ccc(-c2ccc3c(c2COc2cc(F)ccc2C)C(C)=CC(C)(C)N3)c(OC)c1` [Compound 1-17, 6-(4-Acryloyloxy-2-methoxyphenyl)-5-(5-fluoro-2-methylphenoxymethyl)-2,2,4-trimethyl-1,2-dihydroquinoline]: the inhibition at 10 µM amounted to 100%.

In the case of `COc1ccc(NC(=O)Oc2ccc(-c3ccc4c(c3COc3cc(F)ccc3C)C(C)=CC(C)(C)N4)c(OC)c2)cc1` [Compound 6-13, 5-(5-Fluoro-2-methylphenoxymethyl)-6-[2-methoxy-4-(4-methoxyphenylaminocarbonyloxy)phenyl]-2,2,4-trimethyl-1,2-dihydroquinoline], the inhibition at 10 µM worked out at 100%.

Regarding `COc1cc(OC(=O)c2cccc(C(C)=O)c2)ccc1-c1ccc2c(c1COc1cc(F)ccc1C)C(C)=CC(C)(C)N2` [Compound 1-58, 6-[4-(3-Acetylbenzoyloxy)-2-methoxyphenyl]-5-(5-fluoro-2-methylphenoxymethyl)-2,2,4-trimethyl-1,2-dihydroquinoline], the inhibition at 10 µM stood at 100%.

As to `COc1cc(OC(=O)Nc2ccc(C#N)cc2)ccc1-c1ccc2c(c1COc1cc(F)ccc1C)C(C)=CC(C)(C)N2` [Compound 6-17, 6-[4-(4-Cyanophenylaminocarbonyloxy)-2-methoxyphenyl]-5-(5-fluoro-2-methylphenoxymethyl)-2,2,4-trimethyl-1,2-dihydroquinoline], the inhibition at 10 µM amounted to 90%.

Turning to `COc1cc(OC(=O)c2cccnc2)ccc1-c1ccc2c(c1COc1cc(F)ccc1C)C(C)=CC(C)(C)N2` [Compound 1-13, 5-(5-Fluoro-2-methylphenoxymethyl)-6-[2-methoxy-4-(pyridin-3-ylcarbonyloxy)phenyl]-2,2,4-trimethyl-1,2-dihydroquinoline], the inhibition at 10 µM was 100%.

Consider `COc1cc(OC(=O)N2CCOCC2)ccc1-c1ccc2c(c1COc1cc([N+](=O)[O-])ccc1C)C(C)=CC(C)(C)N2` [Compound 6-30, 6-[2-Methoxy-4-(morpholin-4-ylcarbonyloxy)phenyl]-5-(2-methyl-5-nitrophenoxymethyl)-2,2,4-trimethyl-1,2-dihydroquinoline], for which the inhibition at 10 µM was found to be 100%.

For `COc1cc(OC(=O)c2cccc(F)c2)ccc1-c1ccc2c(c1COc1cc(F)ccc1C)C(C)=CC(C)(C)N2` [Compound 1-60, 6-[4-(3-Fluorobenzoyloxy)-2-methoxyphenyl]-5-(5-fluoro-2-methylphenoxymethyl)-2,2,4-trimethyl-1,2-dihydroquinoline], the inhibition at 10 µM was found to be 100%.

Take `COc1cc(OC(=O)c2ccccc2F)ccc1-c1ccc2c(c1COc1cc(F)ccc1C)C(C)=CC(C)(C)N2` [Compound 1-59, 6-[4-(2-Fluorobenzoyloxy)-2-methoxyphenyl]-5-(5-fluoro-2-methylphenoxymethyl)-2,2,4-trimethyl-1,2-dihydroquinoline]: the inhibition at 10 µM worked out at 100%.

With `COc1cc(OS(=O)(=O)C(C)C)ccc1-c1ccc2c(c1COc1cc(F)ccc1C)C(C)=CC(C)(C)N2` [Compound 4-13, 5-(5-Fluoro-2-methylphenoxymethyl)-6-(4-isopropylsulfonyloxy-2-methoxyphenyl)-2,2,4-trimethyl-1,2-dihydroquinoline], the inhibition at 10 µM was 89%.

Consider `COc1cc(OC(=O)C(C)C)ccc1-c1ccc2c(c1COc1cc(F)ccc1C)C(C)=CC(C)(C)N2` [Compound 1-20, 5-(5-Fluoro-2-methylphenoxymethyl)-6-(4-isobutyryloxy-2-methoxyphenyl)-2,2,4-trimethyl-1,2-dihydroquinoline], for which the inhibition at 10 µM worked out at 100%.

As for `COc1ccc([N+](=O)[O-])cc1OCc1c(-c2ccc(OC(=O)N3CCOCC3)cc2OC)ccc2c1C(C)=CC(C)(C)N2` [Compound 6-28, 6-[2-Methoxy-4-(morpholin-4-ylcarbonyloxy)phenyl]-5-(2-methoxy-5-nitrophenoxymethyl)-2,2,4-trimethyl-1,2-dihydroquinoline], the inhibition at 10 µM came to 100%.

With `COc1cc(OC(=O)Cc2cccnc2)ccc1-c1ccc2c(c1COc1cc(F)ccc1C)C(C)=CC(C)(C)N2` [Compound 1-64, 5-(5-Fluoro-2-methylphenoxymethyl)-6-[2-methoxy-4-(pyridin-3-ylacetoxy)phenyl]-2,2,4-trimethyl-1,2-dihydroquinoline], the inhibition at 10 µM came out at 100%.

In the case of `CCC(=O)Oc1ccc(-c2ccc3c(c2COc2cc(F)ccc2C)C(C)=CC(C)(C)N3)c(OC)c1` [Compound 1-16, 5-(5-Fluoro-2-methylphenoxymethyl)-6-(2-methoxy-4-propionyloxyphenyl)-2,2,4-trimethyl-1,2-dihydroquinoline], the inhibition at 10 µM was 100%.

For `COc1cc(OC(=O)c2ccoc2)ccc1-c1ccc2c(c1COc1cc([N+](=O)[O-])ccc1C)C(C)=CC(C)(C)N2` [Compound 1-121, 6-[4-(Furan-3-ylcarbonyloxy)-2-methoxyphenyl]-5-(2-methyl-5-nitrophenoxymethyl)-2,2,4-trimethyl-1,2-dihydroquinoline], the inhibition at 10 µM amounted to 100%.

For `COc1cc(OS(=O)(=O)C2CC2)ccc1-c1ccc2c(c1COc1cc(F)ccc1C)C(C)=CC(C)(C)N2` [Compound 4-27, 6-(4-Cyclopropylsulfonyloxy-2-methoxyphenyl)-5-(5-fluoro-2-methylphenoxymethyl)-2,2,4-trimethyl-1,2-dihydroquinoline], the inhibition at 10 µM came out at 100%.

As for `COc1cc(OC(=O)CCc2ccccc2)ccc1-c1ccc2c(c1COc1cc(F)ccc1C)C(C)=CC(C)(C)N2` [Compound 1-33, 5-(5-Fluoro-2-methylphenoxymethyl)-6-[2-methoxy-4-(3-phenylpropionyloxy)phenyl]-2,2,4-trimethyl-1,2-dihydroquinoline], the inhibition at 10 µM is 89%.

Regarding `COc1ccccc1OC(=O)Oc1ccc(-c2ccc3c(c2COc2cc(F)ccc2C)C(C)=CC(C)(C)N3)c(OC)c1` [Compound 5-5, 5-(5-Fluoro-2-methylphenoxymethyl)-6-[2-methoxy-4-(2-methoxyphenoxycarbonyloxy)phenyl]-2,2,4-trimethyl-1,2-dihydroquinoline], the inhibition at 10 µM stood at 93%.

For `COc1cc(OC(=O)c2cn(C(=O)OC(C)(C)C)cn2)ccc1-c1ccc2c(c1COc1cc(F)ccc1C)C(C)=CC(C)(C)N2` [Compound 1-53, 6-[4-(1-t-Butoxycarbonylimidazol-4-ylcarbonyloxy)-2-methoxyphenyl]-5-(5-fluoro-2-methylphenoxymethyl)-2,2,4-trimethyl-1,2-dihydroquinoline], the inhibition at 10 µM is 100%.

Take `COc1ccc([N+](=O)[O-])cc1OCc1c(-c2ccc(OS(=O)(=O)C3CC3)cc2OC)ccc2c1C(C)=CC(C)(C)N2` [Compound 4-19, 6-(4-Cyclopropylsulfonyloxy-2-methoxyphenyl)-5-(2-methoxy-5-nitrophenoxymethyl)-2,2,4-trimethyl-1,2-dihydroquinoline]: the inhibition at 10 µM turned out to be 98%.
